Results as given in patent US20250002855A1, “METHODS FOR EXPANDING T CELLS FOR THE TREATMENT OF CANCER AND RELATED MALIGNANCIES” (Immatics US, Inc., priority 2020, published 2025).

Key:
[1] = system: tumor-infiltrating lymphocytes; conditions: in the presence of IL-21; after 2 weeks of culture; cited from earlier work
γδ T cells = assay: δ1 and δ2 populations by flow cytometry; type: cell-based, human; conditions: Day 21; culture without vs with zoledronate (5 μM)
From the text: Cells were harvested on Day 21 and analyzed by flow cytometry to determine δ1 and δ2 populations.
The presence of δ1 cells as a percentage of live cells is shown for two donors in FIG. 18A & 18B.

Structure (SMILES) | Tcm αβ T cells (CD28+CD62L+) [1] | δ1 and δ2 populations (γδ T cells)
O=C(CCCCCCC(=O)Nc1ccccc1)NO [SAHA, suberoylanilide hydroxamic acid] | increase Tcm αβ T cells | –
O=P(O)(O)C(O)(Cn1ccnc1)P(=O)(O)O [zoledronate] | – | lack of zoledronate in the culture results in a polyclonal population
